Laboratory results published in US11673898B2, “Substituted inhibitors of menin-MLL and methods of use” (Kura Oncology, Inc., priority 2016, dated 2023).

Columns and labels:
Menin MLL 4-43 = biological target: T1, Menin MLL 4-43 (Homo sapiens, UniProt O00255); assay: Fluorescence polarization (FP) competition assay of the menin-MLL interaction; type: binding; details: fluorescence polarization assay; read-out: Menin MLL 4-43 IC50
T1 sequence (O00255 1-610): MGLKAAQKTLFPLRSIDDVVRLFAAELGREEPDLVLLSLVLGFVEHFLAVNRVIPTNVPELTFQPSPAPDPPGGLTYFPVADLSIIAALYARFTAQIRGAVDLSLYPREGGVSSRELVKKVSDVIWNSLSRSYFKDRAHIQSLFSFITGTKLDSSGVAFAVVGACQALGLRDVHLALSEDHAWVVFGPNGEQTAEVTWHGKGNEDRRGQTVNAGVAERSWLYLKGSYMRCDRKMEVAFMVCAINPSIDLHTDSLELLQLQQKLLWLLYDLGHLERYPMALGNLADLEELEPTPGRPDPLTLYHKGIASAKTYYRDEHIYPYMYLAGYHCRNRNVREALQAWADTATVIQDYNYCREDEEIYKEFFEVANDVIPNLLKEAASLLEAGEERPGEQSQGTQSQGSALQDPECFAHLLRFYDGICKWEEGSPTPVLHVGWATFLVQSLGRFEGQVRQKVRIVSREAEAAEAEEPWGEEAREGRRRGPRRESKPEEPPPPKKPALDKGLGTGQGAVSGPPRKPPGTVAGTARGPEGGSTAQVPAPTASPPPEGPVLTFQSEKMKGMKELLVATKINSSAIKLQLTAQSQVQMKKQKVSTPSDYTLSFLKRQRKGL

MLL-AF9 BMC = assay: Cell proliferation assay (CellTiter-Glo); type: cell-based
Experimental: Example 9: Cell proliferation assay. The ability of a compound of the present disclosure to inhibit the growth of cells, such as human leukemia cell, acute myeloid leukemia cell, cells with an MLL fusion, control cells without an MLL fusion, VCaP, LNCaP, 22RV1, DU145, LNCaP-AR, MV4; 11, KOPN-8, ML-2, MOLM-13, RS4; 11, SEM, bone marrow cells (BMCs), MLL-AF9, MLL-AF4, MLL-ENL, MLL-CBP, MLL-GAS7, MLL-AF1p, MLL-AF6, HM-2, E2A-HLF, REH, U937, K562, KG-1, HL-60 and NB4 cells, is tested using a cell viability assay, such as the Promega CellTiter-Glo® Luminescent Cell Viability Assay (Promega Technical Bulletin, 2015, “CellTiter-Glo® Luminescent Cell Viability Assay”: 1-15, herein incorporated by reference in its entirety). Cells are plated at relevant concentrations, for example about 1×10^5-2×10^5 cells per well in a 96-well plate. A compound of the present disclosure is added at a concentration up to about 2 μM with eight, 2-fold serial dilutions for each compound. Cells are incubated at 37° C. for a period of time, for example, 72 hours, then cells in the control wells are counted. Media is changed to restore viable cell numbers to the original concentration, and compounds are re-supplied. Proliferation is measured about 72 hours later using Promega CellTiter-Glo® reagents, as per kit instructions.

Row | IC50 (Menin MLL 4-43) | SMILES | GI50 (MLL-AF9 BMC)
1 | 50 to 250 nM | CCc1nc(NC2CCN(Cc3ccc4c(cc(C#N)n4C[C@H](C)N4CCN(S(C)(=O)=O)CC4)c3C)CC2)c2cc(CC(F)(F)F)sc2n1 [Compound 171] | 10 to 50 nM
2 | < 50 nM | CNc1nc(NC2CCN(Cc3ccc4c(cc(C#N)n4C[C@H](C)N4CCS(=O)(=O)CC4)c3C)CC2)c2cc(CC(F)(F)F)sc2n1 [Compound 203] | < 10 nM
3 | 50 to 250 nM | CCNc1nc(NC2CCN(Cc3ccc4c(cc(C#N)n4C[C@H](C)N4CCN(S(C)(=O)=O)CC4)c3C)CC2)c2cc(CC(F)(F)F)sc2n1 [Compound 174] | 10 to 50 nM
4 | < 50 nM | Cc1c(CN2CCC(Nc3ncnc4sc(CC(F)(F)F)cc34)CC2)ccc2c1cc(C#N)n2CC(C)N1CCN(S(C)(=O)=O)C(C(N)=O)C1 (stereo not drawn) [Compound 80] | 10 to 50 nM
5 | < 50 nM | CNS(=O)(=O)N1CCN([C@@H](C)Cn2c(C#N)cc3c(C)c(CN4CCC(Nc5nc(C)nc6sc(CC(F)(F)F)cc56)CC4)ccc32)CC1 [Compound 139] | 10 to 50 nM
6 | < 50 nM | Cc1c(CN2CCC(Nc3nc(N)nc4sc(CC(F)(F)F)cc34)CC2)ccc2c1cc(C#N)n2C[C@H](C)N1CCN(S(C)(=O)=O)CC1 [Compound 135] | < 10 nM
7 | < 50 nM | C[C@@H](Cn1c(C#N)cc2cc(CN3CCC(Nc4nc(N)nc5sc(CC(F)(F)F)cc45)CC3)c(O)cc21)N1CCN(S(C)(=O)=O)CC1 [Compound 172] | < 10 nM
8 | < 50 nM | Cc1nc(NC2CCN(Cc3ccc4c(cc(C#N)n4C[C@H](C)N4CCN(S(C)(=O)=O)CC4)c3C)CC2)c2cc(CC(F)(F)F)sc2n1 [Compound 138] | 10 to 50 nM
9 | < 50 nM | CNS(=O)(=O)C1CCN([C@@H](C)Cn2c(C#N)cc3c(C)c(CN4CCC(Nc5nc(OC)nc6sc(CC(F)(F)F)cc56)CC4)ccc32)CC1 [Compound 214] | < 10 nM
10 | 50 to 250 nM | CNc1nc(NC2CCN(Cc3ccc4c(cc(C#N)n4C[C@H](C)N4CCC(C)(C#N)CC4)c3C)CC2)c2cc(CC(F)(F)F)sc2n1 [Compound 199] | < 10 nM
11 | < 50 nM | CNS(=O)(=O)N1CCN([C@@H](C)Cn2c(C#N)cc3cc(CN4CCC(Nc5nc(N)nc6sc(CC(F)(F)F)cc56)CC4)c(O)cc32)CC1 [Compound 177] | < 10 nM
12 | < 50 nM | Cc1c(CN2CCC(Nc3ncnc4sc(CC(F)(F)F)cc34)CC2)ccc2c1cc(C#N)n2C[C@H](C)N1CCN(S(C)(=O)=O)[C@H](C(N)=O)C1 [Compound 163] | < 10 nM
13 | < 50 nM | Cc1c(CN2CCC(Nc3nc(N)nc4sc(CC(F)(F)F)cc34)CC2)ccc2c1cc(C#N)n2C[C@H](C)N1CCN(CC(N)=O)CC1 [Compound 175] | 10 to 50 nM
14 | – | CNc1nc(NC2CCN(Cc3ccc4c(cc(C#N)n4C[C@H](C)N4CCN(S(C)(=O)=O)CC4)c3C)CC2)c2cc(CC(F)(F)F)sc2n1 [Compound 151] | < 10 nM
15 | < 50 nM | COc1nc(NC2CCN(Cc3ccc4c(cc(C#N)n4C[C@H](C)N4CCN(S(C)(=O)=O)CC4)c3C)CC2)c2cc(CC(F)(F)F)sc2n1 [Compound 183] | < 10 nM
16 | < 50 nM | CNS(=O)(=O)N1CCN([C@@H](C)Cn2c(C#N)cc3c(C)c(CN4CCC(Nc5nc(OC)nc6sc(CC(F)(F)F)cc56)CC4)ccc32)CC1 [Compound 205] | < 10 nM
17 | < 50 nM | CNS(=O)(=O)N1CCN([C@@H](C)Cn2c(C#N)cc3c(C)c(CN4CCC(Nc5nc(N)nc6sc(CC(F)(F)F)cc56)CC4)ccc32)CC1 [Compound 132] | < 10 nM
18 | < 50 nM | Cc1c(CN2CCC(Nc3nc(N)nc4sc(CC(F)(F)F)cc34)CC2)ccc2c1cc(C#N)n2C[C@H](C)N1CCN(CC(=O)N(C)C)CC1 [Compound 181] | 10 to 50 nM

Row | IC50 (Menin MLL 4-43) | SMILES | GI50 (MLL-AF9 BMC)
19 | < 50 nM | Cc1c(CN2CCC(Nc3ncnc4sc(CC(F)(F)F)cc34)CC2)ccc2c1cc(C#N)n2C[C@H](C)N1CCN(S(C)(=O)=O)CC1 [Compound 10] | 10 to 50 nM
20 | < 50 nM | CNc1nc(NC2CCN(Cc3ccc4c(cc(C#N)n4C[C@H](C)N4CCC(C)(O)CC4)c3C)CC2)c2cc(CC(F)(F)F)sc2n1 [Compound 207] | < 10 nM
21 | > 1000 nM | Cc1c(CN2CCC(Nc3ncnc4sc(CC(F)(F)F)cc34)CC2)ccc2c1cc(C#N)n2C[C@@H](C)N1CCN(S(C)(=O)=O)CC1 [Compound 9] | 250 to 1000 nM
22 | < 50 nM | CNC(=O)CN1CCN([C@@H](C)Cn2c(C#N)cc3c(C)c(CN4CCC(Nc5nc(N)nc6sc(CC(F)(F)F)cc56)CC4)ccc32)CC1 [Compound 176] | 10 to 50 nM
23 | < 50 nM | CNC(=O)C1CN([C@@H](C)Cn2c(C#N)cc3c(C)c(CN4CCC(Nc5nc(NC)nc6sc(CC(F)(F)F)cc56)CC4)ccc32)CCO1 (stereo partly drawn) [Compound 217] | 10 to 50 nM
24 | < 50 nM | Cc1c(CN2CCC(Nc3ncnc4sc(CC(F)(F)F)cc34)CC2)ccc2c1cc(C#N)n2C(C)CN1CCN(S(C)(=O)=O)CC1 (stereo not drawn) [Compound 27] | –
25 | 50 to 250 nM | Cc1c(CN2CCC(Nc3ncnc4sc(CC(F)(F)F)cc34)CC2)ccc2c1cc(C#N)n2C[C@H](C)N1CCN(S(=O)(=O)NCC(F)F)CC1 [Compound 125] | –
26 | < 50 nM | CNc1nc(NC2CCN(Cc3ccc4c(cc(C#N)n4C[C@H](C)N4CCN(S(=O)(=O)NC)CC4)c3C)CC2)c2cc(CC(F)(F)F)sc2n1 [Compound 192] | –
27 | 50 to 250 nM | Cc1c(CN2CCC(Nc3ncnc4sc(CC(F)(F)F)cc34)CC2)ccc2c1cc(C#N)n2CC1(N2CCN(S(C)(=O)=O)CC2)CC1 [Compound 61] | –
28 | 50 to 250 nM | Cc1c(CN2CCC(Nc3ncnc4sc(CC(F)(F)F)cc34)CC2)ccc2c1cc(C#N)n2C[C@H](C)N1CCN(S(=O)(=O)N2CCC2)CC1 [Compound 121] | –
29 | < 50 nM | CNc1nc(NC2CCN(Cc3cc4cc(C#N)n(C[C@H](C)N5CCN(S(C)(=O)=O)CC5)c4cc3O)CC2)c2cc(CC(F)(F)F)sc2n1 [Compound 194] | –
30 | > 1000 nM | CNc1nc(NC2CCN(Cc3ccc4c(cc(C#N)n4C[C@H](C)N4CCN(S(C)(=O)=O)CC4)c3C)CC2)c2c(C)c(CC(F)(F)F)sc2n1 [Compound 252] | –
31 | 50 to 250 nM | CNS(=O)(=O)C1CCN(C(C)Cn2c(C#N)cc3c(C)c(CN4CCC(Nc5ncnc6sc(CC(F)(F)F)cc56)CC4)ccc32)CC1 (stereo not drawn) [Compound 128] | –
32 | 50 to 250 nM | CNc1nc(NC2CCN(Cc3ccc4c(cc(C#N)n4CC(C)c4cn[nH]c4)c3C)CC2)c2cc(CC(F)(F)F)sc2n1 (stereo not drawn) [Compound 230] | –
33 | < 50 nM | CNc1nc(NC2CCN(Cc3ccc4c(cc(C#N)n4CCN4CCN(C)C(=O)C4)c3C)CC2)c2cc(CC(F)(F)F)sc2n1 [Compound 1024] | –
34 | > 1000 nM | Cc1c(CN2CCC(Nc3ncnc4sc(CC(F)(F)F)cc34)CC2)ccc2c1cc(C#N)n2CCN1C(C)CN(S(C)(=O)=O)CC1C (stereo not drawn) [Compound 47] | –
35 | < 50 nM | CNc1nc(NC2CCN(Cc3ccc4c(cc(C#N)n4C[C@H](C)N4CCC(S(C)(=O)=O)CC4)c3C)CC2)c2cc(CC(F)(F)F)sc2n1 [Compound 193] | –
